Test results reported in patent publication US7875647B2, “Heteroaryl-pyrazole derivatives as cannabinoid CB1 receptor antagonists” (Green Cross Corporation, priority 2006, dated 2011).
pIC50: −log10 of the molar value. Like-named read-outs stand apart in the source and are kept apart here.

Target: T1, Cannabinoid-1 receptor (CB1R) (Rattus norvegicus, UniProt P20272)
T1 construct: The tissue obtained from the brain of SD rats was homogenized; from tissue; host or cells: brain of SD rats (membrane pellet of the homogenate)
Experiment: Cannabinoid-1 receptor (CB1R) binding affinity assay ([3H]CP-55940, rat CB-1 receptor binding protocol)
Details: brain tissue of SD rats, [3H]CP-55940, 30° C. 60 min; for pIC50: read-out: IC50; for IC50: IC50(nM)

T1 sequence (P20272 whole entry): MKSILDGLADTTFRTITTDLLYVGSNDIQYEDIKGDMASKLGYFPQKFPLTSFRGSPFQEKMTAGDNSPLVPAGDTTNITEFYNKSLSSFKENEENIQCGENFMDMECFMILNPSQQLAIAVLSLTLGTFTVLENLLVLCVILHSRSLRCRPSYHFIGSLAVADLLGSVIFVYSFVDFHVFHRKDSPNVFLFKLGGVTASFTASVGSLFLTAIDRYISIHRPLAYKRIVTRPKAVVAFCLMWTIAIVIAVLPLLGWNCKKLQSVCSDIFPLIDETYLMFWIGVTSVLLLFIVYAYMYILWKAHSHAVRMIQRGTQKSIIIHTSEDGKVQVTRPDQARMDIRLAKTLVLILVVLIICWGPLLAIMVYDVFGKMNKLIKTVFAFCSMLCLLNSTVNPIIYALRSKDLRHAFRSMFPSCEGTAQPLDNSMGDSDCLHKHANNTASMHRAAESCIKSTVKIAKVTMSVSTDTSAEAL

SMILES	pIC50	IC50 [nM]
Clc1ccc(-c2c(Cn3cncn3)c(-c3nnc(C4(c5ccccc5)CC4)s3)nn2-c2ccc(Cl)cc2Cl)cc1 [Example 507, 2-(4-((1H-1,2,4-triazol-1-yl)methyl)-5-(4-chlorophenyl)-1-(2,4-dichlorophenyl)-1H-pyrazol-3-yl)-5-(1-phenylcyclopropyl)-1,3,4-thiadiazole]	8.75	–
Cc1ccc(C2(c3nnc(-c4nn(-c5ccc(Cl)cc5Cl)c(-c5ccc(Cl)cc5)c4Cn4cncn4)s3)CC2)cc1 [Example 508, 2-(4-((1H-1,2,4-triazol-1-yl)methyl)-5-(4-chlorophenyl)-1-(2,4-dichlorophenyl)-1H-pyrazol-3-yl)-5-(1-p-tolylcyclopropyl)-1,3,4-thiadiazole]	8.24	–
COc1ccc(C2(c3nnc(-c4nn(-c5ccc(Cl)cc5Cl)c(-c5ccc(Cl)cc5)c4Cn4cncn4)s3)CC2)cc1 [Example 509, 2-(4-((1H-1,2,4-triazol-1-yl)methyl)-5-(4-chlorophenyl)-1-(2,4-dichlorophenyl)-1H-pyrazol-3-yl)-5-(1-(4-methoxyphenyl)cyclopropyl)-1,3,4-thiadiazole]	8.68	–
Clc1ccc(-c2c(Cn3cncn3)c(-c3nnc(C4(c5ccc(Cl)cc5Cl)CC4)s3)nn2-c2ccc(Cl)cc2Cl)cc1 [Example 510, 2-(4-((1H-1,2,4-triazol-1-yl)methyl)-5-(4-chlorophenyl)-1-(2,4-dichlorophenyl)-1H-pyrazol-3-yl)-5-(1-(2,4-dichlorophenyl)cyclopropyl)-1,3,4-thiadiazole]	7.95	–
FC(F)(F)C1(c2nnc(-c3nn(-c4ccc(Cl)cc4Cl)c(-c4ccc(Cl)cc4)c3Cn3cncn3)s2)CC1 [Example 511, 2-(4-((1H-1,2,4-triazol-1-yl)methyl)-5-(4-chlorophenyl)-1-(2,4-dichlorophenyl)-1H-pyrazol-3-yl)-5-(1-(trifluoromethyl)cyclopropyl)-1,3,4-thiadiazole]	8.64	–
FC(F)(F)C1(c2nnc(-c3nn(-c4ccc(Cl)cc4Cl)c(-c4ccc(Cl)cc4)c3Cn3cncn3)s2)CCC1 [Example 512, 2-(4-((1H-1,2,4-triazol-1-yl)methyl)-5-(4-chlorophenyl)-1-(2,4-dichlorophenyl)-1H-pyrazol-3-yl)-5-(1-(trifluoromethyl)cyclobutyl)-1,3,4-thiadiazole]	8.54	–
Clc1ccc(-c2c(Cn3cncn3)c(-c3nnc(C4(c5ccc(Cl)cc5)CCC4)s3)nn2-c2ccc(Cl)cc2Cl)cc1 [Example 513, 2-(4-((1H-1,2,4-triazol-1-yl)methyl)-5-(4-chlorophenyl)-1-(2,4-dichlorophenyl)-1H-pyrazol-3-yl)-5-(1-(4-chlorophenyl)cyclobutyl)-1,3,4-thiadiazole]	8.63	–
Clc1ccc(-c2c(Cn3cncn3)c(-c3nnc(C4(c5ccccc5)CCCC4)s3)nn2-c2ccc(Cl)cc2Cl)cc1 [Example 514, 2-(4-((1H-1,2,4-triazol-1-yl)methyl)-5-(4-chlorophenyl)-1-(2,4-dichlorophenyl)-1H-pyrazol-3-yl)-5-(1-phenylcyclopentyl)-1,3,4-thiadiazole]	8.54	–
Clc1ccc(-c2c(Cn3cncn3)c(-c3nnc(C4(c5ccc(Cl)cc5)CCCC4)s3)nn2-c2ccc(Cl)cc2Cl)cc1 [Example 515, 2-(4-((1H-1,2,4-triazol-1-yl)methyl)-5-(4-chlorophenyl)-1-(2,4-dichlorophenyl)-1H-pyrazol-3-yl)-5-(1-(4-chlorophenyl)cyclopentyl)-1,3,4-thiadiazole]	8.72	–
CC(=O)OCc1c(-c2nnc(C(C)(C)C)s2)nn(-c2ccc(Cl)cc2Cl)c1-c1ccc(Br)cc1 [Example 520, (5-(4-bromophenyl)-3-(5-tert-butyl-1,3,4-thiadiazol-2-yl)-1-(2,4-dichlorophenyl)-1H-pyrazol-4-yl)methyl acetate]	8.05	–
CC(=O)OCc1c(-c2nnc(C(C)(C)C)s2)nn(-c2ccc(Cl)cc2Cl)c1-c1ccc(Cl)cc1 [Example 521, (3-(5-tert-butyl-1,3,4-thiadiazol-2-yl)-5-(4-chlorophenyl)-1-(2,4-dichlorophenyl)-1H-pyrazol-4-yl)methyl acetate]	7.78	–
CC(C)(C)c1nnc(-c2nn(-c3ccc(Cl)cc3Cl)c(-c3ccc(Br)cc3)c2CO)s1 [Example 522, (5-(4-bromophenyl)-3-(5-tert-butyl-1,3,4-thiadiazol-2-yl)-1-(2,4-dichlorophenyl)-1H-pyrazol-4-yl)methanol]	8.34	–
CC(C)(C)c1nnc(-c2nn(-c3ccc(Cl)cc3Cl)c(-c3ccc(Cl)cc3)c2CO)s1 [Example 523, (3-(5-tert-butyl-1,3,4-thiadiazol-2-yl)-5-(4-chlorophenyl)-1-(2,4-dichlorophenyl)-1H-pyrazol-4-yl)methanol]	8.16	–
COCc1c(-c2nnc(C(C)(C)C)s2)nn(-c2ccc(Cl)cc2Cl)c1-c1ccc(Br)cc1 [Example 524, 2-(5-(4-bromophenyl)-1-(2,4-dichlorophenyl)-4-(methoxymethyl)-1H-pyrazol-3-yl)-5-tert-butyl-1,3,4-thiadiazole]	8.08	–
CC(C)(C)c1nnc(-c2nn(-c3ccc(Cl)cc3Cl)c(-c3ccc(Br)cc3)c2CF)s1 [Example 525, 2-(5-(4-bromophenyl)-1-(2,4-dichlorophenyl)-4-(fluoromethyl)-1H-pyrazol-3-yl)-5-tert-butyl-1,3,4-thiadiazole]	8.05	–
CC(C)(C)c1nnc(-c2nn(-c3ccc(Cl)cc3Cl)c(-c3ccc(Br)cc3)c2COc2ccc(C(F)(F)F)cn2)s1 [Example 526, 2-(5-(4-bromophenyl)-1-(2,4-dichlorophenyl)-4-((5-(trifluoromethyl)pyridin-2-yloxy)methyl)-1H-pyrazol-3-yl)-5-tert-butyl-1,3,4-thiadiazole]	7.50	–
CC(C)(C)c1nnc(-c2nn(-c3ccc(Cl)cc3Cl)c(-c3ccc(Br)cc3)c2C=O)s1 [Example 527, 5-(4-bromophenyl)-3-(5-tert-butyl-1,3,4-thiadiazol-2-yl)-1-(2,4-dichlorophenyl)-1H-pyrazole-4-carbaldehyde]	8.00	–
CC(O)c1c(-c2nnc(C(C)(C)C)s2)nn(-c2ccc(Cl)cc2Cl)c1-c1ccc(Br)cc1 (stereo not shown) [Example 528, 1-(5-(4-bromophenyl)-3-(5-tert-butyl-1,3,4-thiadiazol-2-yl)-1-(2,4-dichlorophenyl)-1H-pyrazol-4-yl)ethanol]	8.19	–
CC(F)c1c(-c2nnc(C(C)(C)C)s2)nn(-c2ccc(Cl)cc2Cl)c1-c1ccc(Br)cc1 (stereo not shown) [Example 530, 2-(5-(4-bromophenyl)-1-(2,4-dichlorophenyl)-4-(1-fluoroethyl)-1H-pyrazol-3-yl)-5-tert-butyl-1,3,4-thiadiazole]	–	11.8
C=Cc1c(-c2nnc(C(C)(C)C)s2)nn(-c2ccc(Cl)cc2Cl)c1-c1ccc(Br)cc1 [Example 531, 2-(5-(4-bromophenyl)-1-(2,4-dichlorophenyl)-4-vinyl-1H-pyrazol-3-yl)-5-tert-butyl-1,3,4-thiadiazole]	7.69	–
COC(=O)NC(C)c1c(-c2nnc(C(C)(C)C)s2)nn(-c2ccc(Cl)cc2Cl)c1-c1ccc(Br)cc1 (stereo not shown) [Example 532, Methyl 1-(5-(4-bromophenyl)-3-(5-tert-butyl-1,3,4-thiadiazol-2-yl)-1-(2,4-dichlorophenyl)-1H-pyrazol-4-yl)ethylcarbamate]	–	8.75
CC(=O)c1c(-c2nnc(C(C)(C)C)s2)nn(-c2ccc(Cl)cc2Cl)c1-c1ccc(Br)cc1 [Example 533, 1-(5-(4-bromophenyl)-3-(5-tert-butyl-1,3,4-thiadiazol-2-yl)-1-(2,4-dichlorophenyl)-1H-pyrazol-4-yl)ethanone]	8.22	–
